This is an account of results in patent US20260274799A1, “HETEROCYCLIC DERIVATIVES, COMPOSITIONS AND USES THEREOF” (DANATLAS PHARMACEUTICALS CO., LTD., priority 2023, published 2026).

A value given as a limit tells only on which side of the number the result lay.

The target in this assay is T1, PPARγ-LBD (UniProt ID: P37231-2) (Homo sapiens, UniProt P37231).
T1 construct: PPARγ-LBD (UniProt ID: P37231-2) was expressed and purified in insect system; made in house
T1 sequence (P37231 238-503 limits assumed): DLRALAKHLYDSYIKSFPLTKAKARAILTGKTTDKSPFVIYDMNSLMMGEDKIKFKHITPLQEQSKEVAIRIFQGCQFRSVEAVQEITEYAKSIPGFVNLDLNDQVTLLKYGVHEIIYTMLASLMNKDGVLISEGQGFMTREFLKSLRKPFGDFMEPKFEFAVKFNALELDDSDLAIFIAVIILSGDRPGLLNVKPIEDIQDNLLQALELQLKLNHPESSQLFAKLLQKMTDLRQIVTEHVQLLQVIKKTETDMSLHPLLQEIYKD
Briefly: PPARγ-SMRT recruitment assay (TR-FRET). The format is biochemical. To be noted: for Emax: 1 h, max value of % Activation, high control 10 uM control compound, low control 1% DMSO, read-out: Top %; for EC50: TR-FRET, SMRT peptide recruitment to PPARγ-LBD, 120 min pre-incubation. Here is the method: PPARγ TR-FRET assay was initiated to evaluate potential activatory effect of the compounds of the present disclosure for SMRT recruitment to PPARγ protein. PPARγ-LBD (UniProt ID: P37231-2) was expressed and purified in insect system and stored at −80° C. in aliquots. Biotinylated SMRT peptide was synthesized (Biotin-[…]). 5 μL protein solution mixture consisting of 10 nM PPARγ-LBD and 2 nM Anti-His Eu (Cisbio, 61HISKLA) in assay buffer (25 mM HEPES pH7.4, 25 mM KCl, 1 mM EDTA, 0.01% BSA, 0.01% Tween-20, 1 mM TCEP) was added to 384-well plates containing duplicate 10-point dose response titration of compounds in 5 μL assay buffer (1% f.c. DMSO(v/v)). After 120 min pre-incubation at room temperature, 5 μL peptide solution mixture consisting of 50 nM Biotin-SMRT peptide and 25 nM Streptavidin-XL665 (Cisbio, 610SAXLA) added to plates. Plates were incubated for 60 min. and read in CLARIOstar Plus plate reader with Ex/Em 620 nm/[…]. Average TR-FRET ratio of high control (Wells with 10 uM control compound) was calculated as High Control (HC). Average TR-FRET ratio of low control (Wells with 1% DMSO) was calculated as Low control (LC). For one compound, top % is the max value of % Activation.
EC50 values were determined by fitting the data to the standard 4 parameters with Hill Slope using GraphPad Prism software. […] ND: No Determine.
In general terms: In TR-FRET formats the signal depends on donor and acceptor labels being close together.

Consider `COC(C)(C)C#Cc1c(F)cc2[nH]c(-c3cc(C#N)ccc3S(C)(=O)=O)cc(=O)c2c1F` [Example 50, 3-(5,7-Difluoro-6-(3-methoxy-3-methylbut-1-yn-1-yl)-4-oxo-1,4-dihydroquinolin-2-yl)-4-(methylsulfonyl)benzonitrile], for which the Emax came out at 372% and the EC50 is < 100 nM.
For `CS(=O)(=O)c1ccc(C#N)cc1-c1cc(=O)c2c(F)c(C#CC3CC3)c(F)cc2[nH]1` [Example 9, 3-(6-(Cyclopropylethynyl)-5,7-difluoro-4-oxo-1,4-dihydroquinolin-2-yl)-4-(methylsulfonyl)benzonitrile], the Emax was 359% and the EC50 was < 100 nM.
`Cc1ccc(S(C)(=O)=O)c(-c2cc(=O)c3c(F)c(CCC4CCOCC4)c(F)cc3[nH]2)c1` [Example 56, 5,7-Difluoro-2-(5-methyl-2-(methylsulfonyl)phenyl)-6-(2-(tetrahydro-2H-pyran-4-yl)ethyl)quinolin-4(1H)-one] returned a concentration giving a half-maximal response (EC50) of 100 to 1000 nM.
For `CS(=O)(=O)c1ccc(C#N)cc1-c1cc(=O)c2c(F)c(C#CC3CCOCC3)c(F)cc2[nH]1` [Example 52, 3-(5,7-Difluoro-4-oxo-6-((tetrahydro-2H-pyran-4-yl)ethynyl)-1,4-dihydroquinolin-2-yl)-4-(methylsulfonyl)benzonitrile], the EC50 is < 100 nM.
`Cc1ccccc1C#Cc1c(F)cc2[nH]c(-c3cc(C#N)ccc3S(C)(=O)=O)cc(=O)c2c1F` [Example 17, 3-(5,7-Difluoro-4-oxo-6-(o-tolylethynyl)-1,4-dihydroquinolin-2-yl)-4-(methylsulfonyl)benzonitrile]: the Emax worked out at 613% and the EC50 is < 100 nM.
As to `Cc1ccc(C#Cc2c(F)cc3[nH]c(-c4cc(C#N)ccc4S(C)(=O)=O)cc(=O)c3c2F)cc1` [Example 39, 3-(5,7-Difluoro-4-oxo-6-(p-tolylethynyl)-1,4-dihydroquinolin-2-yl)-4-(methylsulfonyl)benzonitrile], the Emax turned out to be 406% and the EC50 is < 100 nM.
Consider `CS(=O)(=O)c1ccc(C#N)cc1-c1cc(=O)c2c(F)c(OCc3ccccc3)c(F)cc2[nH]1` [Example 18, 3-(6-(Benzyloxy)-5,7-difluoro-4-oxo-1,4-dihydroquinolin-2-yl)-4-(methylsulfonyl)benzonitrile], for which the concentration for a half-maximal effect (EC50) was < 100 nM.
In the case of `CS(=O)(=O)c1ccc(C#N)cc1-c1cc(=O)c2c(F)c(C#Cc3ccccc3OC(F)F)c(F)cc2[nH]1` [Example 37, 3-(6-((2-(Difluoromethoxy)phenyl)ethynyl)-5,7-difluoro-4-oxo-1,4-dihydroquinolin-2-yl)-4-(methylsulfonyl)benzonitrile], the Emax was found to be 406% and the EC50 was < 100 nM.
As to `CS(=O)(=O)c1ccc(C#N)cc1-c1cc(=O)c2c(F)c(C#Cc3ccccc3F)c(F)cc2[nH]1` [Example 51, 3-(5,7-Difluoro-6-((2-fluorophenyl)ethynyl)-4-oxo-1,4-dihydroquinolin-2-yl)-4-(methylsulfonyl)benzonitrile], the Emax amounted to 447% and the EC50 was < 100 nM.
For `CS(=O)(=O)c1ccc(C#N)cc1-c1cc(=O)c2c(F)c(C#Cc3ccccc3OC(F)(F)F)c(F)cc2[nH]1` [Example 36, 3-(5,7-Difluoro-4-oxo-6-((2-(trifluoromethoxy)phenyl)ethynyl)-1,4-dihydroquinolin-2-yl)-4-(methylsulfonyl)benzonitrile], the Emax amounted to 322% and the EC50 was < 100 nM.
Consider `CS(=O)(=O)c1ccc(C#N)cc1-c1cc(=O)c2c(F)c(C#Cc3ccccc3)c(F)cc2[nH]1` [Example 11, 3-(5,7-Difluoro-4-oxo-6-(phenylethynyl)-1,4-dihydroquinolin-2-yl)-4-(methylsulfonyl)benzonitrile], for which the Emax worked out at 435% and the concentration giving a half-maximal response (EC50) is < 100 nM.
As to `COc1cc(-c2cc(C#N)ccc2S(C)(=O)=O)nc2cc(F)c(C#CC(C)(C)F)c(F)c12` [Example 55, 3-(5,7-Difluoro-6-(3-fluoro-3-methylbut-1-yn-1-yl)-4-methoxyquinolin-2-yl)-4-(methylsulfonyl)benzonitrile], the EC50 is > 1000 nM.
`CC(C)(F)C#Cc1c(F)cc2[nH]c(-c3cc(C#N)ccc3S(C)(=O)=O)cc(=O)c2c1F` [Example 23, 3-(5,7-Difluoro-6-(3-fluoro-3-methylbut-1-yn-1-yl)-4-oxo-1,4-dihydroquinolin-2-yl)-4-(methylsulfonyl)benzonitrile]: the Emax was 316% and the EC50 is < 100 nM.
Take `CCC#Cc1c(F)cc2[nH]c(-c3cc(C#N)ccc3S(C)(=O)=O)cc(=O)c2c1F` [Example 20, 3-(6-(But-1-yn-1-yl)-5,7-difluoro-4-oxo-1,4-dihydroquinolin-2-yl)-4-(methylsulfonyl)benzonitrile]: the Emax was 210% and the EC50 was < 100 nM.
Taken in the same sequence, the figures for `Cc1noc(C)c1C#Cc1c(F)cc2[nH]c(-c3cc(C#N)ccc3S(C)(=O)=O)cc(=O)c2c1F` [Example 35, 3-(6-((3,5-Dimethylisoxazol-4-yl)ethynyl)-5,7-difluoro-4-oxo-1,4-dihydroquinolin-2-yl)-4-(methylsulfonyl)benzonitrile] were 243% and < 100 nM.
As for `COCCC#Cc1c(F)cc2[nH]c(-c3cc(C#N)ccc3S(C)(=O)=O)cc(=O)c2c1F` [Example 49, 3-(5,7-Difluoro-6-(4-methoxybut-1-yn-1-yl)-4-oxo-1,4-dihydroquinolin-2-yl)-4-(methylsulfonyl)benzonitrile], the EC50 is < 100 nM.
As to `COc1nccnc1C#Cc1c(F)cc2[nH]c(-c3cc(C#N)ccc3S(C)(=O)=O)cc(=O)c2c1F` [Example 43, 3-(5,7-Difluoro-6-((3-methoxypyrazin-2-yl)ethynyl)-4-oxo-1,4-dihydroquinolin-2-yl)-4-(methylsulfonyl)benzonitrile], the Emax is 237% and the EC50 was < 100 nM.
Take `Cn1cc(C#Cc2c(F)cc3[nH]c(-c4cc(C#N)ccc4S(C)(=O)=O)cc(=O)c3c2F)cn1` [Example 12, 3-(5,7-Difluoro-6-((1-methyl-1H-pyrazol-4-yl)ethynyl)-4-oxo-1,4-dihydroquinolin-2-yl)-4-(methylsulfonyl)benzonitrile]: the Emax was 181% and the EC50 is < 100 nM.
For the compound `CC#Cc1c(F)cc2[nH]c(-c3cc(C#N)ccc3S(C)(=O)=O)cc(=O)c2c1F` [Example 19, 3-(5,7-Difluoro-4-oxo-6-(prop-1-yn-1-yl)-1,4-dihydroquinolin-2-yl)-4-(methylsulfonyl)benzonitrile], the Emax was 208% and the concentration for a half-maximal effect (EC50) is < 100 nM.
Take `C#Cc1c(F)cc2[nH]c(-c3cc(C#N)ccc3S(C)(=O)=O)cc(=O)c2c1F` [Example 2, 3-(6-Ethynyl-5,7-difluoro-4-oxo-1,4-dihydroquinolin-2-yl)-4-(methylsulfonyl)benzonitrile]: the Emax came to 311% and the EC50 was < 100 nM.
As to `CCS(=O)(=O)c1ccc(C#N)cc1-c1cc(=O)c2c(F)c(C#CC3COC3)c(F)cc2[nH]1` [Example 46, 3-(5,7-Difluoro-6-(oxetan-3-ylethynyl)-4-oxo-1,4-dihydroquinolin-2-yl)-4-(ethylsulfonyl)benzonitrile], the Emax was determined as 174% and the EC50 was < 100 nM.

Usually EC50 stands for the concentration that produces a half-maximal response. Lower therefore signals an effect from little substance.
